pKd: −log10 of the molar value.

As a reminder, the pKd is the negative decadic logarithm of the Kd, by convention in mol/L.

A short description of this assay: Fluorescence Based Assay: The details of the KEAP1 KELCH ThermoFluor® Assay Construct are as follows: Kelch domain of human KEAP 1 (321-624 aa) was used in the assay. The protein was expressed in E. coli with 6His tag that was cleaved prior to receipt for use.ThermoFluor® experiments were carried out using instruments owned by Janssen Research and Discovery, L.L.C. through its acquisition of 3-Dimensional Pharmaceuticals, Inc. 1,8-ANS (Invitrogen) was used as a fluorescent dye. Protein (KEAP Kelch) and compound solutions were dispensed into black 384-well polypropylene PCR microplates (Abgene) and overlayed with silicone oil (1 μL, Fluka, type DC 200) to prevent evaporation.Reference wells contained KEAP Kelch without compounds, and the assay conditions were as follows: 1.1 μM (0.037mg/mL) KEAP Kelch, 80 μM 1,8-ANS, 25 mM PIPES, pH 7.0, 100 mM NaCl, 0.002% Tween-20. (Differential scanning fluorimetry follows unfolding on heating by fluorescence.)
Turning to `Cc1cc2cc(C(CC(=O)O)c3ccc(C)c(CN4C[C@H]5CCCCN5c5ncccc5S4(=O)=O)c3)n(C)c2nn1` (stereo not given in full), the pKd was over 9.00.
The figure for `Cc1cnc2c(c1)S(=O)(=O)N(Cc1nc([C@H](CC(=O)O)c3ccn4c(C(F)(F)F)nnc4c3C)ccc1C)C[C@@H]1CCCCN21` is over 9.00; for `Cc1ccc([C@H](CC(=O)O)c2ccn3c(C(F)(F)F)nnc3c2C)cc1CN1C[C@H]2CCCN2c2ncccc2S1(=O)=O` it is over 9.00; for `Cc1ccc(C(CC(=O)O)c2ccn3c(C(F)(F)F)nnc3c2C)cc1CN1CC2CCC(F)(F)CN2c2ncccc2S1(=O)=O` (stereo not given) it is over 9.00.
Molecule `Cc1cnc2c(c1)S(=O)(=O)N(Cc1nc([C@@H](c3ccn4c(C(F)F)nnc4c3C)C(C)(C)C(=O)O)ccc1C)CC1(CC1)O2` gave a pKd of over 9.00.
The figure for `Cc1ccc(C(CC(=O)O)c2ccn3c(C(F)F)nnc3c2C)cc1CN1CC2CCCCN2c2ncc(C#N)cc2S1(=O)=O` (stereo not given) is over 9.00.
The figure for `Cc1c([C@@H](CC(=O)O)c2ccc(Cl)c(CN3CC4CCCCN4c4ncccc4S3(=O)=O)c2)ccn2c(C(F)(F)F)nnc12` (stereo not given in full) is over 9.00; for `Cc1ccc(C(CC(=O)O)c2ccn3c(C(F)F)nnc3c2C)cc1CN1C[C@@H]2CCCCN2c2ncccc2S1(=O)=O` (stereo not given in full) it is over 9.00; for `Cc1ccc([C@@H](c2ccn3c(C(F)(F)F)nnc3c2C)C(C)(C)C(=O)O)cc1CN1CC2(CCOCC2)Oc2nc(OCCN3CCCC3)c(C)cc2S1(=O)=O` it is over 9.00.
The same measure for `CCn1nnc2c(C)c(C(CC(=O)O)c3ccc(C)c(CN4CC5(CC5)Oc5ncccc5S4(=O)=O)n3)ccc21` (stereo not given): over 9.00.
The molecule `Cc1ccc(C(CC(=O)O)c2ccc3c(nnn3CC3CC3)c2C)cc1CN1CC2(COC2)Oc2ccccc2S1(=O)=O` (stereo not given) gave a pKd of over 9.00.
The figure for `Cc1ccc(C(CC(=O)O)c2ccn3c(C(F)(F)F)nnc3c2C)nc1CN1CC2CCCCN2c2ncc(C#N)cc2S1(=O)=O` (stereo not given) is over 9.00; for `Cc1ccc([C@@H](c2ccn3c(C(F)F)nnc3c2C)C(C)(C)C(=O)O)cc1CN1CC2(COC2)Oc2ncccc2S1(=O)=O` it is over 9.00.
The same measure for `CC[C@@H]1CN(Cc2cc([C@H](CC(=O)O)c3cc(OC(F)F)c4c(c3)nnn4C)ccc2C)S(=O)(=O)c2cccnc2O1`: over 9.00; for `Cc1cnc([C@@H](c2ccn3c(C(F)F)nnc3c2C)C(C)(C)C(=O)O)cc1CN1CC2(CC2)Oc2nc(OCCN3CCCCC3)c(C)cc2S1(=O)=O`: over 9.00; for `Cc1ccc([C@H](c2ccn3c(C4CC4)nnc3c2C)C(C)(C)C(=O)O)cc1CN1CC2(COC2)Oc2ncccc2S1(=O)=O`: over 9.00.
The figure for `CCn1nnc2c(C)c(C(c3cnc(C)c(CN4CC5(CCOCC5)Oc5ncc(C)cc5S4(=O)=O)c3)C(C)(C)C(=O)O)ccc21` (stereo not given) is over 9.00.
On to `Cc1ccc(C(c2ccn3c(C(F)(F)F)nnc3c2C)C(C)(C)C(=O)O)cc1CN1CC2(CCOCC2)Oc2nc(OCCN3CCOCC3)ccc2S1(=O)=O` (stereo not given), for which the pKd is over 9.00.
As for `Cc1ccc(C(CC(=O)O)c2ccn3c(C(F)(F)F)nnc3c2C)cc1CN1CC2(COC2)Oc2ccccc2S1(=O)=O` (stereo not given), the pKd is over 9.00.
The same measure for `Cc1ccc([C@@H](c2ccn3c(C(F)F)nnc3c2C)C(C)(C)C(=O)O)nc1CN1CC2(CCOCC2)Oc2nc(OCCN3CCCCC3)c(C)cc2S1(=O)=O`: over 9.00; for `Cc1ccc([C@H](CC(=O)O)c2ccn3c(C(F)(F)F)nnc3c2C)nc1CN1C[C@@H]2CCCCN2c2ncc(F)cc2S1(=O)=O`: over 9.00; for `Cc1ccc([C@H](c2ccn3c(C(F)(F)F)nnc3c2C)C(C)(C)C(=O)O)cc1CN1CC2(CCOCC2)Oc2nc(N[C@@H](C)CN3CCCC3)c(C)cc2S1(=O)=O`: over 9.00.
For `Cc1ccc([C@@H](CC(=O)O)c2ccn3c(C(F)F)nnc3c2C)cc1CN1C[C@H]2CCCN2c2ncc(C#N)cc2S1(=O)=O`, the pKd is over 9.00.
The figure for `Cc1ccc([C@H](c2ccn3c(C(F)(F)F)nnc3c2C)C(C)(C)C(=O)O)cc1CN1CC2(CCOCC2)Oc2nc(OCCCOCCCO)ccc2S1(=O)=O` is over 9.00.
The figure for `Cc1ccc([C@@H](CC(=O)O)c2ccn3c(C(F)(F)F)nnc3c2C)cc1CN1C[C@H]2CCCN2c2ccccc2S1(=O)=O` is over 9.00.

The record behind these values is ChEMBL document CHEMBL5729293, “Inhibitors of KEAP1-Nrf2 protein-protein interaction” (2022).
